Data on five molecules can be found in BindingDB's records for doi:10.1016/0960-894X(95)00250-W (1995).

The target in the assay is Receptor-type tyrosine-protein phosphatase C (Homo sapiens) (UniProt P08575). The experiment in a line: In vitro inhibitory activity against recombinant CD45 protein tyrosine phosphatase.

The structures appear in SMILES notation. pIC50: −log10 of the molar value.

As a reminder, the pIC50 is −log10 of the IC50, conventionally taken in molar units.

Sequence of Receptor-type tyrosine-protein phosphatase C (Homo sapiens) (P08575 whole entry, looked up): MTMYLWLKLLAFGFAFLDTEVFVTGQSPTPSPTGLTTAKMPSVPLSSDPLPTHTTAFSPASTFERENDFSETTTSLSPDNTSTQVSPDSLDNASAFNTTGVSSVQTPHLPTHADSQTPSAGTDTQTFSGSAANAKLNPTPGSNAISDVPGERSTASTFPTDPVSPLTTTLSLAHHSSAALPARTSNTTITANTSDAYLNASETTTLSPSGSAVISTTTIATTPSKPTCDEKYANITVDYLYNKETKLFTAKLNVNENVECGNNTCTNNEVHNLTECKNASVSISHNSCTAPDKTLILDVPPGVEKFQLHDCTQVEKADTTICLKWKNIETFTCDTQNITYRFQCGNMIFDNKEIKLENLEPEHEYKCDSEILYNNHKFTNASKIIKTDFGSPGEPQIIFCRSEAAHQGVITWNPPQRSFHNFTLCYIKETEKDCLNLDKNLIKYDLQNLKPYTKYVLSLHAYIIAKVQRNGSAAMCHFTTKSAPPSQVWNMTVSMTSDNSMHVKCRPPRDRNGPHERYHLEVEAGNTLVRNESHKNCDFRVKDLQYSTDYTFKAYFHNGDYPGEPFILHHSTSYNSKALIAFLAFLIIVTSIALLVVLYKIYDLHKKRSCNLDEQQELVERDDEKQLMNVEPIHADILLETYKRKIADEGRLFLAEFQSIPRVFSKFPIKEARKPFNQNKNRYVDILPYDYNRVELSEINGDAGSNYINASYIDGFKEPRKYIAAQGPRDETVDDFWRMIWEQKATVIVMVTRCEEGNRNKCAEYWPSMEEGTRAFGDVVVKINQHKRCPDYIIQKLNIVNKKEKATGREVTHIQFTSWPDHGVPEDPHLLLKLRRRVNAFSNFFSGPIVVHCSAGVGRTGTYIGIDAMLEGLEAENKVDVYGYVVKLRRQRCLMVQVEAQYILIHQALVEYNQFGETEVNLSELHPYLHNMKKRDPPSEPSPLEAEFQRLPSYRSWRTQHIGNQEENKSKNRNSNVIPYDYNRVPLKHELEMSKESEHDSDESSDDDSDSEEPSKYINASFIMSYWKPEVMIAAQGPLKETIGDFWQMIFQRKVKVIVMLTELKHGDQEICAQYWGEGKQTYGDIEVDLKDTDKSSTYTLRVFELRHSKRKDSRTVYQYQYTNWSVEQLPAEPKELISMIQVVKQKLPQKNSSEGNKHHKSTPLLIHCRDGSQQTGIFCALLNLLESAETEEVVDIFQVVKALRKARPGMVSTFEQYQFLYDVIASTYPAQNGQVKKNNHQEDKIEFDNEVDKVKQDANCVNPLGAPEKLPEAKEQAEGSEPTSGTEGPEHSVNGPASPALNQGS

As for `COc1cc2c(cc1OC)-c1c(OC)c(OC)cc3c1[C@H](C2)N(C)CC3`, the negative-log IC50 (pIC50) was 4.06.

As for `O=C1c2ccccc2-c2c3c(cc4ccnc1c24)OCO3` [Liriodenine], the pIC50 is 3.74.

For the molecule `CN1CCc2cc3c(c4c2C1Cc1ccccc1-4)OCO3` (stereo not given) [7-Methyl-6,7,7a,8-tetrahydro-5H-benzo[g][1,3]dioxolo[4',5':4,5]benzo[1,2,3-de]quinoline], the pIC50 was 3.97.

As for `c1ccc2c(c1)C[C@H]1NCCc3cc4c(c-2c31)OCO4` [(-)-anonaine], the pIC50 was 4.77.

Turning to `COc1cc2c3c(c1OC)-c1ccccc1C[C@@H]3NCC2` [(S)-1,2-Dimethoxy-5,6,6a,7-tetrahydro-4H-dibenzo[de,g]quinoline], the pIC50 was 5.28.
